Measured values reported in ChEMBL document CHEMBL1201862, “PubChem BioAssay data set” (2004).
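A five-concentration, 48-hour dose response in 96-well plates underlies each endpoint, interpolated linearly between surrounding concentrations. The concentration for 50% growth inhibition is given as GI50.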 The source made the active and inactive calls. Cut-off read from the data, not from the text of the source: active = GI50 up to about 1.1 µM and inactive = higher.

Columns and labels:
Test in all cases: DTP human tumour cell line panel, 48 h
786-0 = tested on: 786-0
A498 = tested on: A498
A549 = tested on: A549
ACHN = tested on: ACHN
BT-549 = tested on: BT-549
CAKI-1 = tested on: CAKI-1
CCRF-CEM = tested on: CCRF-CEM
COLO 205 = tested on: COLO 205
DU-145 = tested on: DU-145
EKVX = tested on: EKVX
HCC 2998 = tested on: HCC 2998
HCT-116 = tested on: HCT-116
HCT-15 = tested on: HCT-15
HL-60 = tested on: HL-60
HOP-62 = tested on: HOP-62
HOP-92 = tested on: HOP-92
HT-29 = tested on: HT-29
Hs-578T = tested on: Hs-578T
IGROV-1 = tested on: IGROV-1
K562 = tested on: K562
KM12 = tested on: KM12
LOX IMVI = tested on: LOX IMVI
M14 = tested on: M14
MCF7 = tested on: MCF7
MDA-MB-231 = tested on: MDA-MB-231
MDA-MB-435 = tested on: MDA-MB-435
MDA-N = tested on: MDA-N
MOLT-4 = tested on: MOLT-4
Malme-3M = tested on: Malme-3M
NCI-H226 = tested on: NCI-H226
NCI-H23 = tested on: NCI-H23
NCI-H460 = tested on: NCI-H460
NCI-H522 = tested on: NCI-H522
NCI/ADR-RES = tested on: NCI/ADR-RES
OVCAR-3 = tested on: OVCAR-3
OVCAR-4 = tested on: OVCAR-4
OVCAR-5 = tested on: OVCAR-5
OVCAR-8 = tested on: OVCAR-8
PC-3 = tested on: PC-3
RPMI-8226 = tested on: RPMI-8226
RXF 393 = tested on: RXF 393
SF-268 = tested on: SF-268
SF-295 = tested on: SF-295
SF-539 = tested on: SF-539
SK-MEL-28 = tested on: SK-MEL-28
SK-MEL-2 = tested on: SK-MEL-2
SK-MEL-5 = tested on: SK-MEL-5
SN12C = tested on: SN12C
SNB-19 = tested on: SNB-19
SNB-75 = tested on: SNB-75
SR = tested on: SR
SW-620 = tested on: SW-620
T47D = tested on: T47D
TK-10 = tested on: TK-10
U-251 = tested on: U-251
UACC-257 = tested on: UACC-257
UACC-62 = tested on: UACC-62
UO-31 = tested on: UO-31
SK-OV-3 = tested on: SK-OV-3

Question: How did the GI50 (786-0) turn out when `O=C(N/N=C\c1ccccc1)Nc1cccc2ccccc12` was run?
Answer: 16.4 µM (inactive)

Question: What about the GI50 (A498) of the same compound?
Answer: 25.4 µM (inactive)

Question: And the GI50 (A549)?
Answer: 26.1 µM (inactive)

Question: What about the GI50 (ACHN) of the same compound?
Answer: 18.1 µM (inactive)

Question: What about the GI50 (BT-549) of the same compound?
Answer: 31 µM (inactive)

Question: And the GI50 (CAKI-1)?
Answer: 35.7 µM (inactive)

Question: And the GI50 (CCRF-CEM)?
Answer: > 100 µM (inactive)

Question: What about the GI50 (COLO 205) of the same compound?
Answer: 48.3 µM (inactive)

Question: And the GI50 (DU-145)?
Answer: > 100 µM (inactive)

Question: And the GI50 (EKVX)?
Answer: 36.1 µM (inactive)

Question: What about the GI50 (HCC 2998) of the same compound?
Answer: 80.2 µM (inactive)

Question: And the GI50 (HCT-116)?
Answer: 35.9 µM (inactive)

Question: And the GI50 (HCT-15)?
Answer: 74 µM

Question: And the GI50 (HL-60)?
Answer: > 100 µM (inactive)

Question: And the GI50 (HOP-62)?
Answer: 18.5 µM (inactive)

Question: What about the GI50 (HOP-92) of the same compound?
Answer: 40.5 µM (inactive)

Question: What about the GI50 (HT-29) of the same compound?
Answer: 24.3 µM (inactive)

Question: What about the GI50 (Hs-578T) of the same compound?
Answer: 22 µM (inactive)

Question: What about the GI50 (IGROV-1) of the same compound?
Answer: 24.7 µM (inactive)

Question: And the GI50 (K562)?
Answer: > 100 µM (inactive)

Question: What about the GI50 (KM12) of the same compound?
Answer: 33.4 µM (inactive)

Question: And the GI50 (LOX IMVI)?
Answer: 44.2 µM (inactive)

Question: What about the GI50 (M14) of the same compound?
Answer: 21.8 µM (inactive)

Question: And the GI50 (MCF7)?
Answer: > 10 µM (inactive)

Question: What about the GI50 (MDA-MB-231) of the same compound?
Answer: 91.4 µM (inactive)

Question: What about the GI50 (MDA-MB-435) of the same compound?
Answer: 29.9 µM (inactive)

Question: What about the GI50 (MDA-N) of the same compound?
Answer: 25.1 µM (inactive)

Question: And the GI50 (MOLT-4)?
Answer: > 100 µM (inactive)

Question: What about the GI50 (Malme-3M) of the same compound?
Answer: 28.5 µM (inactive)

Question: What about the GI50 (NCI-H226) of the same compound?
Answer: 27.1 µM (inactive)

Question: What about the GI50 (NCI-H23) of the same compound?
Answer: > 100 µM (inactive)

Question: And the GI50 (NCI-H460)?
Answer: 27.7 µM (inactive)

Question: And the GI50 (NCI-H522)?
Answer: 56.6 µM (inactive)

Question: What about the GI50 (NCI/ADR-RES) of the same compound?
Answer: 87.7 µM (inactive)

Question: And the GI50 (OVCAR-3)?
Answer: > 100 µM (inactive)

Question: And the GI50 (OVCAR-4)?
Answer: 33.5 µM (inactive)

Question: What about the GI50 (OVCAR-5) of the same compound?
Answer: 60.4 µM (inactive)

Question: What about the GI50 (OVCAR-8) of the same compound?
Answer: 27.9 µM (inactive)

Question: And the GI50 (PC-3)?
Answer: 24.4 µM (inactive)

Question: What about the GI50 (RPMI-8226) of the same compound?
Answer: > 100 µM (inactive)

Question: What about the GI50 (RXF 393) of the same compound?
Answer: 28.1 µM (inactive)

Question: And the GI50 (SF-268)?
Answer: 57 µM (inactive)

Question: And the GI50 (SF-295)?
Answer: 32.1 µM (inactive)

Question: What about the GI50 (SF-539) of the same compound?
Answer: 50.4 µM (inactive)

Question: What about the GI50 (SK-MEL-28) of the same compound?
Answer: 21.7 µM (inactive)

Question: And the GI50 (SK-MEL-2)?
Answer: 26.7 µM (inactive)

Question: What about the GI50 (SK-MEL-5) of the same compound?
Answer: 12.1 µM (inactive)

Question: And the GI50 (SN12C)?
Answer: 20.3 µM (inactive)

Question: And the GI50 (SNB-19)?
Answer: 60.7 µM (inactive)

Question: What about the GI50 (SNB-75) of the same compound?
Answer: 18.7 µM (inactive)

Question: What about the GI50 (SR) of the same compound?
Answer: > 100 µM (inactive)

Question: What about the GI50 (SW-620) of the same compound?
Answer: 33.8 µM (inactive)

Question: What about the GI50 (T47D) of the same compound?
Answer: 2.98 µM (inactive)

Question: And the GI50 (TK-10)?
Answer: 42.9 µM (inactive)

Question: What about the GI50 (U-251) of the same compound?
Answer: 30.3 µM (inactive)

Question: And the GI50 (UACC-257)?
Answer: 78.2 µM (inactive)

Question: And the GI50 (UACC-62)?
Answer: 29.2 µM (inactive)

Question: And the GI50 (UO-31)?
Answer: 40.5 µM (inactive)

Question: How did the GI50 (786-0) turn out when `Oc1ccc(Cl)cc1/C=N/c1cnc2ccccc2c1` was run?
Answer: 37.9 µM (inactive)

Question: And the GI50 (A498)?
Answer: > 100 µM (inactive)

Question: What about the GI50 (A549) of the same compound?
Answer: > 92.7 µM (inactive)

Question: What about the GI50 (ACHN) of the same compound?
Answer: > 57.1 µM (inactive)

Question: And the GI50 (BT-549)?
Answer: 22.3 µM (inactive)

Question: What about the GI50 (CAKI-1) of the same compound?
Answer: > 100 µM (inactive)

Question: And the GI50 (CCRF-CEM)?
Answer: 1.52 µM (inactive)

Question: And the GI50 (COLO 205)?
Answer: 53.8 µM (inactive)

Question: What about the GI50 (DU-145) of the same compound?
Answer: 41.5 µM (inactive)

Question: What about the GI50 (EKVX) of the same compound?
Answer: 29.7 µM (inactive)

Question: And the GI50 (HCT-116)?
Answer: 11.3 µM (inactive)

Question: And the GI50 (HCT-15)?
Answer: 4.4 µM

Question: And the GI50 (HL-60)?
Answer: 4.56 µM (inactive)

Question: What about the GI50 (HOP-62) of the same compound?
Answer: 35.5 µM (inactive)

Question: What about the GI50 (HOP-92) of the same compound?
Answer: 28.1 µM (inactive)

Question: And the GI50 (HT-29)?
Answer: 36.6 µM (inactive)

Question: What about the GI50 (Hs-578T) of the same compound?
Answer: > 68.9 µM (inactive)

Question: And the GI50 (IGROV-1)?
Answer: 16 µM (inactive)

Question: And the GI50 (K562)?
Answer: 10.2 µM (inactive)

Question: What about the GI50 (KM12) of the same compound?
Answer: 30.6 µM (inactive)

Question: What about the GI50 (LOX IMVI) of the same compound?
Answer: 8.17 µM (inactive)

Question: What about the GI50 (M14) of the same compound?
Answer: 16.9 µM (inactive)

Question: And the GI50 (MCF7)?
Answer: 22.6 µM (inactive)

Question: And the GI50 (MDA-MB-231)?
Answer: 32.6 µM (inactive)

Question: And the GI50 (MDA-MB-435)?
Answer: 36.7 µM (inactive)

Question: And the GI50 (MDA-N)?
Answer: 34.7 µM (inactive)

Question: And the GI50 (MOLT-4)?
Answer: 2.84 µM (inactive)

Question: And the GI50 (Malme-3M)?
Answer: > 70.6 µM (inactive)

Question: What about the GI50 (NCI-H226) of the same compound?
Answer: 55.2 µM (inactive)

Question: What about the GI50 (NCI-H23) of the same compound?
Answer: 33.9 µM (inactive)

Question: What about the GI50 (NCI-H460) of the same compound?
Answer: 33.7 µM (inactive)

Question: What about the GI50 (NCI-H522) of the same compound?
Answer: > 86.7 µM (inactive)

Question: And the GI50 (NCI/ADR-RES)?
Answer: 27.7 µM (inactive)

Question: And the GI50 (OVCAR-3)?
Answer: 14.5 µM (inactive)

Question: What about the GI50 (OVCAR-4) of the same compound?
Answer: 27.4 µM (inactive)

Question: What about the GI50 (OVCAR-5) of the same compound?
Answer: > 100 µM (inactive)

Question: And the GI50 (OVCAR-8)?
Answer: 27 µM (inactive)

Question: And the GI50 (PC-3)?
Answer: 14.3 µM (inactive)

Question: And the GI50 (RPMI-8226)?
Answer: 13.1 µM (inactive)

Question: And the GI50 (RXF 393)?
Answer: > 100 µM (inactive)

Question: What about the GI50 (SF-268) of the same compound?
Answer: 29.1 µM (inactive)

Question: What about the GI50 (SF-295) of the same compound?
Answer: 36.7 µM (inactive)

Question: And the GI50 (SF-539)?
Answer: 13.4 µM (inactive)

Question: What about the GI50 (SK-MEL-28) of the same compound?
Answer: > 68.9 µM (inactive)

Question: And the GI50 (SK-MEL-2)?
Answer: 27.2 µM (inactive)

Question: And the GI50 (SK-MEL-5)?
Answer: 27.5 µM (inactive)

Question: And the GI50 (SK-OV-3)?
Answer: 33.3 µM (inactive)

Question: What about the GI50 (SN12C) of the same compound?
Answer: 30.3 µM (inactive)

Question: And the GI50 (SNB-19)?
Answer: 29 µM (inactive)

Question: And the GI50 (SNB-75)?
Answer: 33.1 µM (inactive)

Question: What about the GI50 (SR) of the same compound?
Answer: 18.8 µM (inactive)

Question: What about the GI50 (SW-620) of the same compound?
Answer: 24.8 µM (inactive)

Question: What about the GI50 (T47D) of the same compound?
Answer: 4.81 µM (inactive)

Question: And the GI50 (TK-10)?
Answer: > 100 µM (inactive)

Question: What about the GI50 (U-251) of the same compound?
Answer: 11.9 µM (inactive)

Question: What about the GI50 (UACC-257) of the same compound?
Answer: 5.01 µM (inactive)

Question: What about the GI50 (UACC-62) of the same compound?
Answer: 32.7 µM (inactive)

Question: And the GI50 (UO-31)?
Answer: 45.6 µM (inactive)
